Data taken from patent publication US20020162794A1, “Anaerobic digestion” (priority 2001, published 2002).
Several values for one entry are separate records, joined by “and”; a condition that tells them apart may be missing. Equal values may be shown once.

Test system: mixed culture from a publicly owned anaerobic digester (domestic sewage sludge)
Experiment: Chemical Oxygen Demand (COD) of batch anaerobic digester reactors
Method: Two tests were run in which sodium formate in concentrations ranging from a few parts per million (ppm) up to ten percent (10%) on a mass basis were added to samples taken from a publicly owned anaerobic digester. The samples were first cultured in laboratory sized batch reactors. The twelve batch reactors were then sampled, and studied for periods of up to fifty-five days. The process variables that were monitored included COD (Chemical Oxygen Demand), TS (Total Solids), TVS (Total Volatile Solids) and the pH of the culture. Time and the initial sodium formate concentration level were the independent variables. Finally measurements were also made of the bacterial counts at the beginning and at the end of the fifty five day period. These experimental observations permitted partial identifications of the predominant bacterial colonies still viable in each of the twelve reactors used for each trial of the laboratory study.
Chemical Oxygen Demand (COD) measurements
To perform this measurement, a 5 ml of the sample from each of the 12 reactors is taken and diluted 10-fold to 50 ml. 5 ml of the now diluted sample is again diluted 10 fold to 50 ml. This double dilution represents a 100-fold dilution of the original sample. 2 ml of these diluted samples are put into standard COD test tubes. The test tubes are closed and shaken vigorously. The 13 (COD) test tubes (one is a control) are then heated to 150 deg. C for two hours. The UV spectrometer is calibrated by first analyzing the test tube with pure distilled water as the zero COD or control sample.
The sample test tubes are then analyzed for COD using UV spectrometer after inputting the method number and adjusting the frequency of UV rays to correspond to a sample with a high organic loading range. The readings that were obtained in units of mg/liter are multiplied by 100 to correct for the dilution procedure and to get COD concentration level for the original sample. COD is indicative of the organic substrate load level in the wastewater being treated or tested.
Municipal sludge from the city of Lubbock, Wastewater Treatment Plant was digested in 12 batch digesters. Using twelve batch reactors allowed the collection of control reactors data (i.e., no formate in the reactors) in triplicate, titration studies of increasing formate concentration, and duplicates/triplicates of varying formate concentration. Experiments were conducted in the laboratories of Texas Tech University.
The substrate taken was 2 parts of 50 g/liter sucrose solution mixed with 1 part of digested municipal sludge which acts as the seed material for incorporation of microbes into the reactors. The experiments were started with the following protocol. [drawing 1]

Compound: O=C[O-].[Na+] [sodium formate]
- COD Concentration (1/4/99 run, 100 ppm, 0 Day): 29.5 g/L
- COD Concentration (1/4/99 run, 100 ppm, 15 days): 43.8 g/L
- COD Concentration (1/4/99 run, 100 ppm, 30 days): 39.1 g/L
- COD Concentration (1/4/99 run, 1250 ppm, 0 Day): 40.3 g/L
- COD Concentration (1/4/99 run, 1250 ppm, 15 days): 42.7 g/L
- COD Concentration (1/4/99 run, 1250 ppm, 30 days): 32 g/L
- COD Concentration (1/4/99 run, 2500 ppm, 0 Day): 17.1 g/L
- COD Concentration (1/4/99 run, 2500 ppm, 15 days): 41.4 g/L
- COD Concentration (1/4/99 run, 2500 ppm, 30 days): 38.9 g/L
- COD Concentration (1/4/99 run, 3750 ppm, 0 Day): 38 g/L
- COD Concentration (1/4/99 run, 3750 ppm, 15 days): 40.7 g/L
- COD Concentration (1/4/99 run, 3750 ppm, 30 days): 47.8 g/L
- COD Concentration (1/4/99 run, 5000 ppm, 0 Day): 37.5 g/L
- COD Concentration (1/4/99 run, 5000 ppm, 15 days): 43.1 g/L
- COD Concentration (1/4/99 run, 5000 ppm, 30 days): 46.6 g/L
- COD Concentration (1/4/99 run, 6250 ppm, 0 Day): 34.3 g/L
- COD Concentration (1/4/99 run, 6250 ppm, 15 days): 44.1 g/L
- COD Concentration (1/4/99 run, 6250 ppm, 30 days): 38.1 g/L
- COD Concentration (1/4/99 run, 7500 ppm, 0 Day): 36.7 g/L
- COD Concentration (1/4/99 run, 7500 ppm, 15 days): 33 g/L
- COD Concentration (1/4/99 run, 7500 ppm, 30 days): 55.8 g/L
- COD Concentration (1/4/99 run, 8750 ppm, 0 Day): 24.9 g/L
- COD Concentration (1/4/99 run, 8750 ppm, 15 days): 26.1 g/L
- COD Concentration (1/4/99 run, 8750 ppm, 30 days): 53.8 g/L
- COD Concentration (1/4/99 run, 10000 ppm, 0 Day): 33.8 g/L
- COD Concentration (1/4/99 run, 10000 ppm, 15 days): 36.1 g/L
- COD Concentration (1/4/99 run, 10000 ppm, 30 days): 45.5 g/L
- COD Concentration, Average (1/4/99 run, average 25 ppm (reactors 0, 0, 0, 100 ppm), 0 Day): 37.825 g/L
- COD Concentration, Average (1/4/99 run, average 25 ppm (reactors 0, 0, 0, 100 ppm), 15 days): 51.23 g/L
- COD Concentration, Average (1/4/99 run, average 25 ppm (reactors 0, 0, 0, 100 ppm), 30 days): 39.125 g/L
- COD Concentration, Average (1/4/99 run, average 2500 ppm (1250, 2500, 3750 ppm), 0 Day): 31.8 g/L
- COD Concentration, Average (1/4/99 run, average 2500 ppm (1250, 2500, 3750 ppm), 15 days): 41.6 g/L
- COD Concentration, Average (1/4/99 run, average 2500 ppm (1250, 2500, 3750 ppm), 30 days): 39.57 g/L
- COD Concentration, Average (1/4/99 run, average 6250 ppm (5000, 6250, 7500 ppm), 0 Day): 36.17 g/L
- COD Concentration, Average (1/4/99 run, average 6250 ppm (5000, 6250, 7500 ppm), 15 days): 40.07 g/L
- COD Concentration, Average (1/4/99 run, average 6250 ppm (5000, 6250, 7500 ppm), 30 days): 46.83 g/L
- COD Concentration, Average (1/4/99 run, average 8750 ppm (7500, 8750, 10000 ppm), 0 Day): 31.8 g/L
- COD Concentration, Average (1/4/99 run, average 8750 ppm (7500, 8750, 10000 ppm), 15 days): 31.73 g/L
- COD Concentration, Average (1/4/99 run, average 8750 ppm (7500, 8750, 10000 ppm), 30 days): 51.7 g/L
- COD Concentration (7/1/99 run (Tables 5, 6), 1000 ppm, 0 Day (with formate addition)): 52 g/L and 60.8 g/L and 48.6 g/L
- COD Concentration (7/1/99 run (Tables 5, 6), 1000 ppm, 7 Day): 65.8 g/L and 68.2 g/L and 50.3 g/L
- COD Concentration (7/1/99 run (Tables 5, 6), 1000 ppm, 1 days, listed as Format): 51.5 g/L and 60.3 g/L and 57.2 g/L
- COD Concentration (7/1/99 run (Tables 5, 6), 1000 ppm, 1 days, listed as Formate): 57.2 g/L
- COD Concentration (7/1/99 run (Tables 5, 6), 1000 ppm, 4 days): 52 g/L and 51.4 g/L and 52.3 g/L
- COD Concentration (7/1/99 run (Tables 5, 6), 1000 ppm, 9 days): 54.9 g/L and 48.5 g/L and 47.7 g/L
- COD Concentration (7/1/99 run (Tables 5, 6), 1000 ppm, 16 days): 33.1 g/L and 41.4 g/L and 33.6 g/L
- COD Concentration (7/1/99 run (Tables 5, 6), 1000 ppm, 55 days): 34 g/L and 46.6 g/L and 38 g/L
- COD Concentration (7/1/99 run (Tables 5, 6), 5000 ppm, 0 Day (with formate addition)): 60.3 g/L
- COD Concentration (7/1/99 run (Tables 5, 6), 5000 ppm, 7 Day): 52.2 g/L
- COD Concentration (7/1/99 run (Tables 5, 6), 5000 ppm, 1 days): 46.8 g/L and 48.8 g/L
- COD Concentration (7/1/99 run (Tables 5, 6), 5000 ppm, 4 days): 48.9 g/L
- COD Concentration (7/1/99 run (Tables 5, 6), 5000 ppm, 9 days): 44.2 g/L
- COD Concentration (7/1/99 run (Tables 5, 6), 5000 ppm, 16 days): 30.4 g/L
- COD Concentration (7/1/99 run (Tables 5, 6), 5000 ppm, 24 days): 30.9 g/L
- COD Concentration (7/1/99 run (Tables 5, 6), 5000 ppm, 55 days): 34.3 g/L
- COD Concentration (7/1/99 run (Tables 5, 6), 10000 ppm, 0 Day (with formate addition)): 58.2 g/L and 69 g/L and 36.7 g/L
- COD Concentration (7/1/99 run (Tables 5, 6), 10000 ppm, 7 Day): 56.4 g/L and 44.3 g/L
- COD Concentration (7/1/99 run (Tables 5, 6), 10000 ppm, 1 days, listed as Format): 50.7 g/L and 52.3 g/L and 45.5 g/L
- COD Concentration (7/1/99 run (Tables 5, 6), 10000 ppm, 1 days, listed as Formate): 45.5 g/L
- COD Concentration (7/1/99 run (Tables 5, 6), 10000 ppm, 4 days): 47.3 g/L and 43.5 g/L and 43.2 g/L
- COD Concentration (7/1/99 run (Tables 5, 6), 10000 ppm, 9 days): 49.9 g/L and 51.6 g/L and 43.7 g/L
- COD Concentration (7/1/99 run (Tables 5, 6), 10000 ppm, 16 days): 38.2 g/L and 32 g/L and 40 g/L
- COD Concentration (7/1/99 run (Tables 5, 6), 10000 ppm, 24 days): 40.8 g/L and 37.1 g/L and 40 g/L
- COD Concentration (7/1/99 run (Tables 5, 6), 10000 ppm, 55 days): 49.7 g/L and 38.5 g/L and 32 g/L
- COD Concentration (7/1/99 run (Tables 5, 6), 100000 ppm, 0 Day (with formate addition)): 49 g/L and 64.4 g/L
- COD Concentration (7/1/99 run (Tables 5, 6), 100000 ppm, 7 Day): 74.9 g/L and 94.5 g/L
- COD Concentration (7/1/99 run (Tables 5, 6), 100000 ppm, 1 days, listed as Format): 121 g/L and 165 g/L
- COD Concentration (7/1/99 run (Tables 5, 6), 100000 ppm, 1 days, listed as Formate): 120.7 g/L and 165 g/L
- COD Concentration (7/1/99 run (Tables 5, 6), 100000 ppm, 4 days): 65.5 g/L and 87.1 g/L
- COD Concentration (7/1/99 run (Tables 5, 6), 100000 ppm, 9 days): 71 g/L and 89.6 g/L
- COD Concentration (7/1/99 run (Tables 5, 6), 100000 ppm, 16 days): 57.5 g/L and 67.1 g/L
- COD Concentration (7/1/99 run (Tables 5, 6), 100000 ppm, 24 days): 41.5 g/L and 25.6 g/L
- COD Concentration (7/1/99 run (Tables 5, 6), 100000 ppm, 55 days): 64.8 g/L and 73.9 g/L
- % (reduction of average COD versus 0 ppm) (7/1/99 run, 1000 ppm): 0.72%
- COD Concentration, Average (7/1/99 run, 1000 ppm, average of 3 reactors, 0 Day): 53.8 g/L
- COD Concentration, Average (7/1/99 run, 1000 ppm, average of 3 reactors, 7 Day): 61.43 g/L
- COD Concentration, Average (7/1/99 run, 1000 ppm, average of 3 reactors, 1 days): 58.3 g/L and 56.3 g/L
- COD Concentration, Average (7/1/99 run, 1000 ppm, average of 3 reactors, 4 days): 51.9 g/L
- COD Concentration, Average (7/1/99 run, 1000 ppm, average of 3 reactors, 9 days): 50.37 g/L
- COD Concentration, Average (7/1/99 run, 1000 ppm, average of 3 reactors, 16 days): 36.03 g/L
- COD Concentration, Average (7/1/99 run, 1000 ppm, average of 3 reactors, 24 days): 36.6 g/L
- COD Concentration, Average (7/1/99 run, 1000 ppm, average of 3 reactors, 55 days): 38.87 g/L
- % (reduction of average COD versus 0 ppm) (7/1/99 run, 5000 ppm): 10.3%
- COD Concentration, average over all sampling days (Averag) (7/1/99 run, 5000 ppm, 0 to 55 days): 43.5 g/L
- % (reduction of average COD versus 0 ppm) (7/1/99 run, 10000 ppm): 5.79%
- COD Concentration, Average (7/1/99 run, 10000 ppm, average of 3 reactors, 0 Day): 54.63 g/L
- COD Concentration, Average (7/1/99 run, 10000 ppm, average of 3 reactors, 7 Day): 52.37 g/L
- COD Concentration, Average (7/1/99 run, 10000 ppm, average of 3 reactors, 1 days): 49.5 g/L
- COD Concentration, Average (7/1/99 run, 10000 ppm, average of 3 reactors, 4 days): 44.67 g/L
- COD Concentration, Average (7/1/99 run, 10000 ppm, average of 3 reactors, 9 days): 48.4 g/L
- COD Concentration, Average (7/1/99 run, 10000 ppm, average of 3 reactors, 16 days): 36.73 g/L
- COD Concentration, Average (7/1/99 run, 10000 ppm, average of 3 reactors, 24 days): 39.3 g/L
- COD Concentration, Average (7/1/99 run, 10000 ppm, average of 3 reactors, 55 days): 40.07 g/L
- % (reduction of average COD versus 0 ppm) (7/1/99 run, 100000 ppm): −56.1%
- COD Concentration, Average (7/1/99 run, 100000 ppm, average of 2 reactors, 0 Day): 56.7 g/L
- COD Concentration, Average (7/1/99 run, 100000 ppm, average of 2 reactors, 7 Day): 84.7 g/L
- COD Concentration, Average (7/1/99 run, 100000 ppm, average of 2 reactors, 1 days): 143 g/L
- COD Concentration, Average (7/1/99 run, 100000 ppm, average of 2 reactors, 4 days): 76.3 g/L
- COD Concentration, Average (7/1/99 run, 100000 ppm, average of 2 reactors, 9 days): 80.3 g/L
- COD Concentration, Average (7/1/99 run, 100000 ppm, average of 2 reactors, 16 days): 62.3 g/L
- COD Concentration, Average (7/1/99 run, 100000 ppm, average of 2 reactors, 24 days): 33.55 g/L
- COD Concentration, Average (7/1/99 run, 100000 ppm, average of 2 reactors, 55 days): 69.35 g/L
- COD reduction due to the formate (FIG. 2) (25 to 8,750 ppm, 0, 15 and 30 days): ~10%
- average percent range in improvement of measured COD levels (domestic sewage): ≤ 12%
- increase in COD reduction (FIG. 3) (from 0 formate up to about 5,000-7,000 ppm): about 10%
